Test system: Plasmodium falciparum
Test: GSK_TCMDC: Inhibition of Plasmodium falciparum 3D7 in whole erythrocytes, using parasite LDH activity as an index of growth.
Format: functional, organism-based
Conditions: Plasmodium falciparum, 3D7

| SMILES | XC50 |
| --- | --- |
| Cc1ccc(Nc2nc(N/N=C/c3cccc(O)c3)nc(Nc3ccc([N+](=O)[O-])cc3)n2)cc1C | 735 nM |
| C[C@@H](CC1CCCCC1)OC(=O)N[C@H]1CCN(C#N)C1 | 870 nM |
| CN=C(S)NN=C(C)c1ccccn1 | 272 nM |
| Cc1cc(NC(=O)NCCN2CCC(NC(=O)c3ccc(F)cc3)CC2)c2ccccc2n1 | 331 nM |
| CS(=O)(=O)c1ccc(-n2nc(C(F)(F)F)cc2-c2ccc(C=NOCC(=O)O)o2)cc1 | 976 nM |
| O=C(c1ccc(-c2cccc(-c3nc4cc(C(F)(F)F)ccc4[nH]3)c2)cc1)N1CCCCC1CN1CCC(O)C1 (configuration not stated) | 652 nM |
| Cn1cncc1C(=O)Nc1cccc(-c2csc(-c3nc4ccccc4[nH]3)c2)c1 | 447 nM |
| CC1CNC(c2ccc(NC(=O)Nc3ccc(C4=NC(C)CN4)cc3)cc2)=N1 (configuration not stated) | 379 nM |
| COc1ccc(CCOc2c(C)nc(N)nc2N)cc1OC | 69.6 nM |
| Cc1cc(=O)c(-c2ccc(OCCSc3ccc(C(F)(F)F)cn3)cc2)c(C)[nH]1 | 527 nM |
| O=c1c(NCCCN(Cc2ccc(F)cc2)c2ccccn2)c(NCc2cccnc2)c1=O | 61.7 nM |
| Cc1oc(-c2ccc(Cl)cc2)cc1C(=O)NCCC1CCN(CCCCCNC(=O)/C=C/c2ccc(Cl)c(Cl)c2)CC1 | 446 nM |
| Cc1cc(Nc2ncc(C#N)c(Nc3ccccc3C(N)=O)n2)ccc1N1CCN(C)CC1 | 8.63 nM |
| CC(O)C1CCCCN1C(=O)c1cccc(-c2ccc(-c3nc4ccccc4[nH]3)s2)c1 (configuration not stated) | 798 nM |
| Cc1ccc(F)cc1S(=O)(=O)NCC(C)c1ccc(NC(=O)Nc2cccc(F)c2)cc1 (configuration not stated) | 973 nM |
| CCOC(=O)C(C(=O)OCC)c1nc(C)ns1 | 471 nM |
| CCCCOc1c(CCC)cc(Cc2cnc(N)nc2N)cc1CCC | 629 nM |
| FC(F)(F)c1ccc2[nH]ccc(=NN=Cc3ccccc3Cl)c2c1 | 799 nM |
| CC(NC(=O)c1ccc(O)c(-c2ccc(Cl)c(Cl)c2)c1)C(=O)NCCN1CCCCC1 (configuration not stated) | 868 nM |
| N=C(N)NC(=O)Nc1cc(Cl)c(Cl)c(C(F)(F)F)c1 | 611 nM |
| CO/C(=C\C=C\c1cc2cc(Cl)ccc2[nH]1)C(=O)NCCCN1CCN(c2cc(Cl)ccc2OC)CC1 | 877 nM |
| CCCC(=O)Nc1ccc(OCCN(Cc2ccccc2OC(F)(F)F)c2ccc(C(F)(F)F)c(C#N)c2)cc1 | 788 nM |
| COc1ccc2nc(N)nc(C)c2c1 | 927 nM |
| CC(NC(=O)c1ccc(O)c(-c2ccc(Cl)c(Cl)c2)c1)C(=O)NCCN1CCOCC1 (configuration not stated) | 959 nM |
| CC(C)(C(=O)Nc1ccc(C2CCC(NCC3CC3)CC2)c(Cl)c1)c1cccc(OC(F)F)c1 (configuration not stated) | 968 nM |

| SMILES | XC50 |
| --- | --- |
| N#Cc1cccc(C(O)CN(Cc2ccccc2)Cc2ccccc2)c1 (configuration not stated) | 1270 nM |
| Cc1cc(F)ccc1Nc1nc(N(C)c2ccccc2)c2cccc(O)c2n1 | 957 nM |
| CSc1ccc2ccccc2c1CNCCCCCCNCc1c(SC)ccc2ccccc12 | 797 nM |
| CCN(CC)S(=O)(=O)c1cc(-c2ccc(=O)n(CC(=O)c3ccc(C)cc3)n2)ccc1C | 895 nM |
| COc1cc2nc(NCC3CCN(c4nc(N)c5cc(OC)c(OC)cc5n4)CC3)nc(N)c2cc1OC | 776 nM |
| Cc1c2ccc(N(C)c3ccnc(Nc4ccc5c(c4)nc(NC(C)C)n5C)n3)cc2nn1C | 159 nM |
| O=C(/C=C/c1ccc(Cl)c(Cl)c1)NCCCCCN1CCCN(C(=O)Nc2ccc(C(F)(F)F)cc2)CC1 | 688 nM |
| COc1cc(O)c2c(=O)c(OC)c(-c3cccc(Cl)c3OC3O[C@H](CO)[C@@H](O)[C@H](O)[C@H]3O)oc2c1OC (some centres not stated) | 774 nM |
| O=C(CSc1cccc[n+]1[O-])c1ccc(Cc2ncc(C(F)(F)F)cc2Cl)s1 | 715 nM |
| COc1ccc2nccc([C@@H](O)CN3CCC(NC(=O)C(c4cc5ccccc5s4)N4CCN(c5ccccc5OC)CC4)CC3)c2c1 (some centres not stated) | 160 nM |
| CCN1CCC(N2CCC(n3c(C)nc4cc(C(F)(F)F)ccc43)CC2)CC1 | 1020 nM |
| CN(C(=O)c1snnc1-c1ccccc1)C1CCN(CCCCCNC(=O)/C=C/c2ccc(Cl)c(Cl)c2)CC1 | 186 nM |
| CC(=O)Nc1ccc(-c2nc3ccc(-c4nc5ccc(NC(C)=O)cc5[nH]4)cc3[nH]2)cc1 | 242 nM |
| CC(O)c1cccc(-c2ccc(Nc3ccnc4cc(-c5nccs5)ccc34)cc2)c1 (configuration not stated) | 1010 nM |
| COc1cc(NCC2(CNCc3cn(Cc4ccccc4)c4ccccc34)CCCCC2)nc2ccccc12 | 946 nM |
| N=C1N=C(N)NC2(CCCCC2)N1OCCCOc1cc(Cl)c(Cl)cc1Cl | 3.2 nM |
| CN1CCN(c2cccc(-c3nnc(-c4cccc(OCC(=O)NCc5ccc(C(F)(F)F)cc5)c4)o3)c2)CC1 | 759 nM |
| CC(=O)N(C)C1CCN(Cc2ccc(-c3cccc(-c4nc5cc(F)ccc5[nH]4)c3)cc2)C1 (configuration not stated) | 596 nM |
| O=C(Nc1ccc([N+](=O)[O-])cc1)Nc1cc(C(F)(F)F)ccc1F | 1070 nM |
| CCC(=O)OC(CCN(CC)CC)(c1ccccc1)c1ccccc1 | 369 nM |
| CN(C)c1ccc(CN2CCC(NC(=O)c3ccc(-c4ccc(N(C)C)cc4)s3)CC2)cc1 | 1070 nM |
| COc1cccc(C(=O)NC(c2ccc(Cl)cc2Cl)c2cc(Cl)c3cccnc3c2O)c1 (configuration not stated) | 454 nM |
| COc1ccc(NC(=O)/C=C/c2ccc(-c3ccc(-c4noc(C)n4)cc3)cc2)cc1OCCN(C)C | 1370 nM |
| O=C1CCCN1CCCNCc1ccc(-c2cccc(-c3nc4cc(F)ccc4[nH]3)c2)cc1 | 659 nM |
| CCCCCCC1(C)N=C(N)N=C(N)C1c1ccc(Cl)c(Cl)c1 (configuration not stated) | 132 nM |

| SMILES | XC50 |
| --- | --- |
| CCC1CCCCN1S(=O)(=O)c1ccc(OC)c(N2CCN(C(=O)C(Cl)(Cl)Cl)CC2)c1 (configuration not stated) | 1120 nM |
| CCN1CCC(N(Cc2ccc(-c3ccc(C(F)(F)F)cc3)cc2)C(=O)CCCCn2c(CCc3cccc(F)c3F)nc(=O)c3ccccc32)CC1 | 989 nM |
| Cc1cccc(CN2CCCN(Cc3ccc(C(=O)Nc4ccc(C(C)(C)C)cc4)cc3)CC2)c1 | 727 nM |
| O=C(Nc1cccc(CN2CCCN(Cc3cccc(Cl)c3)CC2)c1)c1ccc(Br)cc1 | 944 nM |
| O=C(Cn1c(SCc2cccc(F)c2F)cc(=O)c2ccccc21)N(Cc1ccc(-c2ccc(C(F)(F)F)cc2)cc1)C1CCN(CCO)CC1 | 1250 nM |
| CC(=O)Nc1cccc(CNCc2ccc(-c3cnc(N4CCCC(C)(C)C4)nc3)cc2)c1 | 822 nM |
| COc1ccc2nccc([C@@H](O)CN3CCC(NCc4cnc5c(c4)NC(=O)CS5)CC3)c2c1 | 860 nM |
| CN1CCN=C1c1ccc(NC(=O)Nc2ccc(C3=NCCN3C)cc2)cc1 | 379 nM |
| N#Cc1cccc(NC(=O)Nc2ccc(-c3ccc(-c4nc5cc(C(F)(F)F)ccc5[nH]4)cc3)cc2)c1 | 145 nM |
| COc1cccc2cc(C(=O)N[C@@H](CC(C)C)C(=O)NC3CC[C@@H](C)N(C(=O)Nc4ccncc4)CC3=O)oc12 (some centres not stated) | 292 nM |
| CCCCCC(C)C(C)c1cc(O)c2c(c1)OC(C)(C)CC2(O)c1ccccn1 (configuration not stated) | 741 nM |
| Cc1noc(C)c1-c1cccc(CNCc2ccc(-c3ccc(-c4nc5cc(F)ccc5[nH]4)cc3)cc2)c1 | 212 nM |
| CN(c1ccc(NC(=O)Nc2cccc(Cl)c2)cc1)c1ccnc(N)n1 | 628 nM |
| CN1CCCN(Cc2ccc(-c3cccc(NC(=O)c4cccc(C#N)c4)c3)cc2)CC1 | 651 nM |
| Cc1cccc2nc(-c3ccc(-c4cccc(NC(=O)CN5CCN(C)CC5)c4)s3)[nH]c12 | 826 nM |
| O=C(NCc1ccc(Cl)c(Cl)c1)c1ccc(C2CCN(Cc3ccc4[nH]cnc4c3)CC2)cc1 | 957 nM |
| Cc1ccc2nc(-c3ccc(C(=O)NC4CCN(Cc5ccccc5)CC4)s3)[nH]c2c1 | 1010 nM |
| CCCCCOc1ccc(N2C(N)=NC(N)=NC2(C)C)cc1 | 205 nM |
| O=C(Nc1cccc(CN2CCCN(Cc3ccc4c(c3)OCO4)CC2)c1)c1ccc(Cl)c(Cl)c1 | 893 nM |
| CC(C)CC(NC(=O)c1cccc(OCCN2CCOCC2)c1)C(=O)NC(/C=N/NC(=O)c1ccccc1)CCc1ccccc1 (configuration not stated) | 251 nM |
| CNC(=O)NC1CCN(Cc2c(-c3cccs3)nc3ccccc3c2C(=O)N[C@@H](C)C2CCCCC2)CC1 | 219 nM |
| Cc1ccc2[nH]c(C)cc(=NN=Cc3cccc(F)c3)c2c1 | 631 nM |
| Cc1cccc2nc(-c3ccc(-c4cccc(NC(=O)c5cncn5C)c4)s3)[nH]c12 | 645 nM |
| COc1ccc2nccc([C@@H](O)CN3CCC(NC(=O)c4ccc5cc[nH]c5c4)CC3)c2c1 | 969 nM |
| Oc1ccc(-c2ccccc2)cc1CN1CCCCCC1 | 1170 nM |

| SMILES | XC50 |
| --- | --- |
| Cc1ccc(C(=O)Nc2cccc(CN3CCCN(Cc4ccc(O)cc4)CC3)c2)s1 | 1000 nM |
| CC(C)C1c2ccc(O)cc2CC2C(=O)N(C3CCCCC3)C(=O)N21 (configuration not stated) | 884 nM |
| COc1cc(NC2=C(c3ccccc3)C(=O)c3ccccc32)ccn1 | 359 nM |
| CCC(N)(C#Cc1ccc(-c2c(C)[nH]c(C)c(Br)c2=O)cc1)CC | 41.5 nM |
| Cn1cncc1-c1ccc2c(-c3ccsc3)cnc(N)c2c1 | 850 nM |
| COc1ccc(-c2cc(C(=O)Nc3ccc(CCCN(C)Cc4ccc(OC)c(OC)c4)cc3)c3ccccc3n2)cc1 | 698 nM |
| Cc1cc(OCC2CCCO2)c2cc(NC(=O)C(=O)Nc3ccc4nc(C)cc(OCC5CCCO5)c4c3)ccc2n1 (configuration not stated) | 804 nM |
| CN(C)c1cc(NC(=O)Nc2ccc(SC(F)(F)F)cc2)c2ccccc2n1 | 140 nM |
| COc1csc2cc(Br)ccc12 | 861 nM |
| O=C(/C=C/c1ccc(Cl)c(Cl)c1)NC1CCN(Cc2ccc(O)cc2)C1 (configuration not stated) | 952 nM |
| CO[C@H](C)[C@H](NC(=O)[C@H](CC(C)C)[C@H](CCC(F)(F)F)N(O)C=O)C(=O)Nc1nccs1 | 110 nM |
| Oc1cc(Nc2ccnc3cc(-c4cccc(CN5CCOCC5)c4)ccc23)c(F)cc1Cl | 207 nM |
| CC(O)C1CCCCN1C(=O)c1ccc(-c2ccc(-c3nc4cc(F)ccc4[nH]3)cc2)cc1 (configuration not stated) | 435 nM |
| CN1CC(c2ccccc2)c2cc(O)c(CN3CCCCC3)cc2CC1Cc1ccccc1 (configuration not stated) | 176 nM |
| O=C1c2cc(I)ccc2SC1c1ccccc1 (configuration not stated) | 817 nM |
| COc1ccc2nccc([C@@H](O)CN3CCC(NCc4nc5c(cc4Cl)OCC(=O)N5)C(F)C3)c2c1 (some centres not stated) | 1320 nM |
| NC1=NC2(CCCCC2)N(OCCCCCCN2C(=O)c3ccccc3C2=O)C(N)=N1 | 871 nM |
| O=C(CCc1c[nH]cn1)Nc1ccc(-c2ccc(-c3nc4cc(F)ccc4[nH]3)cc2)cc1 | 693 nM |
| N=C(N)NC(=O)Nc1cc(Cl)c(Cl)c(Br)c1 | 611 nM |
| c1ccc2c(C3CCN(CCCCOc4ccc5c(c4)CCN(CC4CC4)CC5)CC3)c[nH]c2c1 | 982 nM |
| CC(C)(CN)c1nc(-c2ccc(Cl)c(O)c2)c(-c2ccncc2)[nH]1 | 756 nM |
| CC[C@H]1CN2CC[C@@H]1C[C@@H]2[C@@H](O)c1cc(-c2ccc(F)cc2)nc2ccc(OC)cc12 | 114 nM |
